Data: US20130253022A1 (FOX CHASE CHEMICAL DIVERSITY CENTER, INC., priority 2010, published 2013)

What was measured:
[1] = test system: hippocampal neurons; test: Prevention of reactive oxygen species accumulation from hydrogen peroxide (CDFFDA dye); assay type: cell-based; details: Rattus norvegicus, Hippocampal neuron; hydrogen peroxide for three hours, day 18 hippocampal cultures; read-out: Potency of Reduction in Oxidized CDFFDA (ROS) EC50
Text: Cell cultures: all compounds were screened with dissociated hippocampal cultures derived from embryonic day 18 rats as the primary test system. With this preparation, primary neurons were used to test for prevention of reactive oxygen species accumulation in response to hydrogen peroxide. In brief, hippocampal tissue was obtained commercially through Brain Bits (Springfield, Ill.) and cultures prepared as previously described (Brewer, G. J. Serum-free B27/neurobasal medium supports differentiated growth of neurons from the striatum, substantia nigra, septum, cerebral cortex, cerebellum and dentate gyms. J. Neurosci. Res. 1995, 42, 674-683). […]
Hydrogen peroxide and glutamate generate reactive oxygen species (ROS) such as superoxide anions, hydrogen peroxide and hydroxyl radicals which can reactively damage cellular components including DNA, lipids and proteins (Anderson et al. (2001). Green tea catechins partially protect DNA from OH radical-induced strand breaks and base damage through fast chemical repair of DNA radicals. Carcinogenesis 2001, 22:1189-1193). […] The cultures were then treated with 30 nM hydrogen peroxide for three hours and the fluorescence measured at Ex/Em 485/508. Background fluorescence was subtracted from values obtained from wells without cells.

[2] = test system: Hippocampal Cultures; test: Neuroprotection from glutamate excitotoxicity, propidium iodide (cell death) assay; assay type: cell-based; details: Rattus norvegicus; 30 μM glutamate 5 min, hippocampal cultures, 4 hour test period; read-out: NP from Glutamate PI EC50
Text: Cell cultures: All compounds are screened with dissociated hippocampal cultures derived from embryonic day 18 rats as the primary test system. With this preparation, primary neurons are used to test for toxicity as well as neuroprotection in a highly relevant experimental system to epilepsy. In brief, hippocampal tissue are obtained commercially through Brain Bits (Springfield, Ill.) and cultures prepared as previously described by Brewer (Brewer, G. J. Serum-free B27/neurobasal medium supports differentiated growth of neurons from the striatum, substantia nigra, septum, cerebral cortex, cerebellum and dentate gyms, J. Neurosci. Res. 1995, 42, 674-683). The hippocampal neurons are platted at low density (10,000 cell/well) in a 96-well format and maintained in serum-free medium consisting of Neurobasal Medium supplemented with B27 and GlutaMAX (Gibco). Pre-coated poly-L-lysine coated plates are used because of the preferential adherence and survival of hippocampal neurons on this matrix support.
Potent neuroprotection is the distinguishing characteristic that separates this program's anticonvulsants from all other commercial drugs for epilepsy. The experimental details and the rationale for the implemented assays are essential in differentiating these compounds from that of others. The central objective of all neuroprotective assays was their relevancy to excitotoxicity and oxidative stress related to epilepsy. Both the amount of glutamate and hydrogen peroxide used in the assays, as well as the time of treatment and duration of the experiment, were designed to be relevant to epilepsy. Further, all time parameters employed in these studies were empirically determined to be within the limits of reversible toxic events, yet using amounts of glutamate and hydrogen peroxide that were relevant to the disease. In regard to glutamate toxicity, a critical feature was the duration of treatment of the hippocampal neurons. The rational for using a short 5 min treatment with glutamate was based on the observation of Randall and Thayer (Randall, R. D.; Thayer, S. A. Glutamate-induced calcium transient triggers calcium overload and neurotoxicity in rat hippocampal neurons, J. Neurosci. 1992, 12, 1882-1895). […] The rationale is that this intense burst of glutamate and resulting calcium overload is relevant to seizures and therefore was important data to capture in the screening assay. The amount of glutamate (30 μM) employed in our screening was based on the basal levels of glutamate observed in microdialysis measurements of hippocampus from epileptogenic patients (Cavus et al. Decreased hippocampal volume on MRI is associated with increased extracellular glutamate in epilepsy patients, Epilepsia, 2008, 49, 1358-1366). In regard to hydrogen peroxide, the amount employed (10 μM) was detected in the hippocampus of rats after kainate-induced status epilepticus (Jarrett et. al., Mitochondrial DNA damage and impaired base excision repair during epileptogenesis, Neurobiol. Dis. 2008, 30, 130-138). To produce neural damage and death with these amounts of glutamate and hydrogen peroxide, the cultures were changed to a medium with significant depletion of antioxidant components in the defined medium supplement B-27 just prior to treatment with the compounds. This was performed to obtain a significant and reproducible toxic signal in the hippocampal neurons and because loss of antioxidant control may be a component of epileptogenesis (Waldbaum and Patel, Mitochondria, oxidative stress and temporal lobe epilepsy, Epilepsy Res. 2010 88, 23-45; Wu et al., Mitochondrial DNA mutation-elicited oxidative stress, oxidative damage, and altered gene expression in cultured cells of patients with MERRF syndrome, Mol. Neurobiol. 2010, 41, 256-266). Neuroprotection studies with hydrogen peroxide were conducted with cultures that were between day 12 and day 18. Studies of neuroprotection glutamate were conducted between day 19 and day 22. […]

| EC50 [1] [nM] | Compound | EC50 [2] [nM] |
| --- | --- | --- |
| 0.03 | NS(=O)(=O)NCC(F)(F)c1ccccc1F [Example 1, 2,2-Difluoro-2-(2-fluorophenyl)-ethyl-1-sulfamide] | 1 |
| 0.01 | NS(=O)(=O)NCC(F)(F)c1ccccc1Cl [Example 2, 2,2-Difluoro-2-(2-chlorophenyl)-ethyl-1-sulfamide] | 1 |
